Results taken from patent US20090137427A1, “Method for generating hypermutable organisms” (The John Hopkins University School of Medicine, priority 2000, published 2009).

How the values were obtained:
Assay type in all cases: cell-based, human
HCT116 cells = assay: β-gal positive foci in pCAROF-transfected MMR defective cells exposed to chemical mutagen; conditions: 10 μM for 8 hours, 1,000 cells/plate, grown 10 days, triplicate
Text: To enhance the rate of genetic mutations and produce cells with altered genes, RNA expression, or polypeptides, the use of MMR deficiency and chemical mutagens is a powerful tool to generate such diversity. The advantages of using MMR defective cells is that the decrease of this activity renders cells more resistant to the toxic effects of such compounds yet allows for the increase in genetic and phenotypic alterations of a host organism or cell. […] Cells that are genetically defective for MMR such as but not limited to HCT116, DLD-1, etc. or cells such as those described in example 1 and 2 that are made MMR defective by ectopic expression of a dominant negative allele is covered under this invention. Briefly, MMR proficient and deficient cells are incubated with a range (1 nm to 1 mM) of chemical mutagens for 1 hour to 24 hours at 37 C at 5% CO2 in growth medium. After incubation is complete, chemical mutagens are washed from medium and cells are grown in the presence of hypoxanthine, aminopterin, and […] to score for HPRT mutant cells as previously described (Walker, V E et. al. Mutat Res. 17:371-388, 1999.) and known to those skilled in the art. […] After 14 days, the numbers of HAT-resistant colonies are determined by counting under the microscope. […] Cells were grown for 10 days and scored for β-gal activity using methods described in EXAMPLE 1. […]

[1] = test system: HCT116 cells cotransfected with polyPNP and pC9MLH constructs; assay: MPD killing assay, MLH1 complementation; conditions: 300 μM
Text: The restoration of genetic stability and the subsequent imprint of an altered gene locus or loci is an important invention of this application for producing viable biological products, whereby altered biomolecules, cells or whole organisms with desired altered output traits are made genetically stable for long term use. To generate stable MMR defective cell lines that has or has not been exposed to chemical mutagens and selected for desired genetic changes, the introduction of a complementing MMR gene that can substitute for the mutated endogenous MMR gene locus is taught in this application. […] In this example, a mammalian expression vector is used that encodes for the functional MLH1 polypeptide (pC9MLH1) or an expression vector that encodes for a MLH1 cDNA with a premature stop codon (pC9MLHstop). These expression vectors contain a neomycin (neo) resistance gene that allows for selection of cells containing this vector. […] Cells were selected for 10 days in neo and Hyg and resistant clones were isolated and expanded. Cells were then cultured in the presence of MPD and counted for growth after 10 days. […]
For MPD killing assay, cells were plated at 2×10^4 cell/ml and 1 ml aliquots were plated in 24-well costar tissue culture dishes. […] Cells were grown for 10 days trypsinized and counted on hemocytometer using trypan blue exclusion. […]

[2] = test system: HEK293 cells expressing PNP; assay: MPD killing assay; conditions: 50-300 μM, 10 days
Text: (§1) The use of cells with defective MMR repair due to defects of endogenous genes such as but not limited to the HCT116, DLD-1, and HEC-1-A cells lines (ref. 12, 25 and Kondo, et. al. J Biochem 125:818-825, 1999) can be useful for altering the genetic structure of genes to produce commercially viable variant molecules such as novel anti-microbial agents, bioactive growth factors or hormones, altered antibody structures, etc. The utility and value of such a cell is that once an altered gene structure has been produced, the integrity of this gene alteration can be preserved in the cell's genome by making the cell genetically stable via the introduction of a functional complementing MMR gene. […] The polyPNP gene encodes for a non-functional PNP gene. When the poly-A tract is randomly altered by genetic alterations due to defective MMR, the tract is randomly altered, allowing for the production of a functional PNP gene and polypeptide. PNP converts the non-toxic 9-(β-D-2-deoxy-erythro-pento-furanosyl)-6-methyl-purine prodrug (referred to as MPD) substrate to the toxic 6-methyl purine analog (referred to as MP) (Sorscher, E J, et. al. Gene Therapy 1:233-238, 1994). The polyPNP gene was engineered to contain a hemaglutinin epitope tag at the C-terminus to facilitate the detection of the encoded polypeptide via western blot analysis using an anti-HA antibody. The polyPNP gene was cloned into the pCEP4 expression vector, which has a hygromycin resistance (Hyg) gene for selection. A homologous gene called PNP was also made in which an in-frame polyA tract is cloned into the N-terminus of the gene as a positive control for PNP activity. Briefly, the MMR defective HCT116 cell line and the MMR proficient HEK293 cell line were transfected with the polyPNP, the PNP expression vector, or an empty pCEP4 vector. Cells were then selected for Hyg resistance and clones were isolated. Expanded cells were grown in the presence of increasing amounts of MPD (0, 1, 10, 50, 100, 300 μM) for 10 days. After treatment period, cells were counted by hemocytometer and trypan blue exclusion.
(§2) Cells were transfected with PNP and/or MLH1 expression vectors using liposomes following the manufacturer's protocol (Gibco/BRL). Stably transfected cell lines were generated that express empty vector, PNP or polyPNP by transfection followed by hygromycin selection. For complementation experiments, HCT116 cells were transfected with PNP/MLH1, PNP/MLH1stop, polyPNP/MLH1 or polyPNP/MLH1 stop at a 1:1 ratio using 5 μg of each plasmid and cells were selected for hygromycin and neomycin resistance. After 10 days, drug-resistant colonies were observed and picked for analysis.
(§3) For MPD killing assay, cells were plated at 2×10^4 cell/ml and 1 ml aliquots were plated in 24-well costar tissue culture dishes. For killing assays, cells were plated in 0, 1, 10, 50, 100, and 300 μM MPD in triplicate. Cells were grown for 10 days trypsinized and counted on hemocytometer using trypan blue exclusion. Data are presented as a mean+/−SD for each study.

HEK293/polyPNP cells = assay: MPD killing assay; conditions: highest concentration (300 μM), 10 days
Text: as §1, §2, §3

[3] = test system: HCT116 cells expressing PNP; assay: MPD killing assay; conditions: 50-300 μM, 10 days
Text: as §1, §2, §3

HCT116/polyPNP cells = assay: MPD killing assay; conditions: 10 days
Text: as §1, §2, §3

Row | SMILES | number of β-gal positive foci (HCT116 cells) | decrease in total cell growth compared to medium alone ([1]; cells expressing MLH1 (pC9MLH1) plus polyPNP) [%] | reduction in cell growth compared to medium alone ([1]; cells transfected with MLHstop or empty vector and polyPNP) [%] | growth suppression [2] [%] | decrease in cell growth (in words) (HEK293/polyPNP cells) | growth suppression [3] [%] | decrease in cell numbers (HCT116/polyPNP cells; 100 μM) [%] | decrease in cell numbers (HCT116/polyPNP cells; 300 μM) [%]
1 | CCOS(C)(=O)=O [EMS, ethyl methanesulfonate] | 205+/−18 per dish | – | – | – | – | – | – | –
2 | Cc1ncnc2c1ncn2[C@H]1C[C@H](O)[C@@H](CO)O1 [MPD, 9-(β-D-2-deoxyerythropentofuranosyl)-6-methyl-purine] | – | 2 | 35 | 100 | no decrease in cell growth | 100 | 20 | 30
